Reference: the PolyMetriX glass transition set
± gives the standard deviation of the reports.

Compound | glass transition temperature [°C]
*c1ccc(Oc2cccc(Oc3ccc(N4C(=O)c5ccc(Oc6ccc(Oc7ccc(Oc8ccc9c(c8)C(=O)N(*)C9=O)cc7)cc6)cc5C4=O)cc3)c2)cc1 (repeat unit) | 184.00
*Nc1ccc(C(=O)c2ccc(Nc3ccc4c(c3)c3cc(*)ccc3n4CC(CC)CCCC)cc2)cc1 (repeat unit) | 236.1
*C1Oc2ccccc2C1* (repeat unit) | 65.20
*Oc1ccc(NC(=O)c2cc(NC(=O)CCCN3C(=O)c4ccccc4C3=O)cc(C(=O)Nc3ccc(*)cc3)c2)cc1 (repeat unit) | 225.00
*CC(*)c1ccc(C(=O)OCCCC)cc1 (repeat unit) | 76.00
*Oc1ccc(S(=O)(=O)c2ccc3cc(S(=O)(=O)c4ccc(Oc5ccc(-c6ccc(*)cc6)cc5)cc4)ccc3c2)cc1 (repeat unit) | 255.00
*C1OC(C(F)(F)F)(C(F)(F)F)OC1(*)F (repeat unit) | 256.00
*CC(*)C(=O)OC12CC3CC(CC(C3)C1)C2 (repeat unit) | 183.00
*c1ccc(Oc2ccc(C(=O)c3cccc(C(=O)c4ccc(Oc5ccc(-c6c7c(c(*)c8ccccc68)C(=O)N(CCCCCCCCCCCC)C7=O)cc5)cc4)c3)cc2)cc1 (repeat unit) | 140.00
*c1ccc2cc(OC(=O)c3ccc(C(=O)Oc4ccc5cc(-c6nc7ccccc7nc6*)ccc5c4)cc3)ccc2c1 (repeat unit) | 136.00
*CCCCOC(=O)CCSCCCCCCSCCC(=O)O* (repeat unit) | -73.00
*c1ccc2c(c1)C(=O)N(c1ccc(Oc3ccc(C(C)(C)c4ccc(Oc5ccc(N6C(=O)c7ccc(C(*)(C(F)(F)F)C(F)(F)F)cc7C6=O)cc5)cc4)cc3)cc1)C2=O (repeat unit) | 246.70 ± 3.3
*C(=O)Nc1cccc(Oc2cccc(Oc3cccc(Oc4cccc(Oc5cccc(NC(=O)c6ccc7c(c6)C(=O)N(c6ccc(Oc8cccc(Oc9ccc(N%10C(=O)c%11ccc(*)cc%11C%10=O)cc9)c8C#N)cc6)C7=O)c5)c4C#N)c3)c2C#N)c1 (repeat unit) | 199.00
*C1C(*)C2CC1C(C(=O)OCCCc1ccccc1)C2C(=O)OCCCc1ccccc1 (repeat unit) | 200.00
*C(=O)c1ccc2c(c1)C(=O)N(c1ccc(-c3cc(-c4ccc(OCCCC#N)cc4)cc(-c4ccc(N5C(=O)c6ccc(*)cc6C5=O)cc4)n3)cc1)C2=O (repeat unit) | 342.00
*c1cccc(C(=O)Nc2ccc(Oc3ccc(S(=O)(=O)c4ccc(Oc5ccc(NC(=O)c6cccc(N7C(=O)c8ccc(-c9ccc%10c(c9)C(=O)N(*)C%10=O)cc8C7=O)c6)cc5)cc4)cc3)cc2)c1 (repeat unit) | 258.00
*Oc1ccc(S(=O)(=O)c2ccc(Oc3ccc(S(=O)(=O)c4ccc(-c5ccc(-c6ccc(S(=O)(=O)c7ccc(*)cc7)cc6)cc5)cc4)cc3)cc2)cc1 (repeat unit) | 281.00
*C(=O)c1ccc2c(c1)C(=O)N(c1cccc(C(=O)c3ccc(Oc4ccc(N5C(=O)c6ccc(*)cc6C5=O)cc4C(F)(F)F)cc3)c1)C2=O (repeat unit) | 242.00
*c1ccc(Cc2ccc(N(c3ccc(C)cc3)c3ccc(-c4ccc(N(*)c5ccc(C)cc5)cc4)cc3)cc2)cc1 (repeat unit) | 183.00
*CC(*)C1CCC(C(C)(C)C)CC1 (repeat unit) | 131.00
*CCCCCCCCCCCCCCNC(=O)CCc1ccc(CCC(=O)N*)cc1 (repeat unit) | 85.00
*CCCNC(=O)CNC(=O)C(Cc1ccccc1)NC(=O)CCCCCCCCC(=O)NC(Cc1ccccc1)C(=O)NCC(=O)NCCCOCCOCCO* (repeat unit) | 36.00
*CC(*)(C)OC (repeat unit) | 67.00
